IC50 data for nine substances are collected here from patent publication US5519000A, “Tumor necrosis factor inhibitors” (Centecor, Inc., priority 1994, dated 1996).

No end group written: not given here.

In the experiment the target is T1, human TNFα (Homo sapiens, UniProt P01375).
T1 construct: purchased Biosource, Camarillo, Calif
T1 sequence (P01375 77-233 limits assumed): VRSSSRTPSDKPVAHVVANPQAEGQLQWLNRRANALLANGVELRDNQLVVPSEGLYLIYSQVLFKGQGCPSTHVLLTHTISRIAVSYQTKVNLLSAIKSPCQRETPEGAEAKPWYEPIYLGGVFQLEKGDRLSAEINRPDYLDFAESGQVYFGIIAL
As to the kind of experiment: p55 receptor/IgG fusion protein binding assay (inhibition of TNFα capture by p55-Ig coated plate). The following applies: human recombinant TNFα 25 ng/ml preincubated with peptide; relative to TNFα in the absence of peptide; read-out: IC50 (concentration necessary to inhibit TNFα by 50%), inhibition of binding of TNFα to p55TNFr-IgG chimeric construct. The procedure:
In order to screen compounds for their ability to block TNFα binding to the TNF p55 receptor, an assay has been designed using TNFα and a p55/IgG fusion protein in place of monovalent, non-fusion p55 TNF receptor protein. This assay was designed to identify peptides which bind to human TNFα and thereby prevent the capture of the TNFα by a microtiter plate coated with p55-Ig fusion protein. A constant concentration of human TNFα is preincubated with the test peptide and then incubated on the p55-Ig coated microtiter wells. Bound TNFα is detected using a specific antisera and an alkaline phosphatase-conjugated probe. An active peptide will reduce the amount of human TNFα bound to the well relative to control wells in which TNFα but no peptide was added.
A 96-well, U-bottom polyvinylchloride microtiter plate was coated with 50 μl/well of p55-Ig fusion protein at 5 μg/ml in 0.01M sodium phosphate, 0.15M sodium chloride (PBS) by incubation overnight at 4° C. or 2 hours at 37° C. The fusion protein, which consists of a p55 TNF receptor protein portion and an IgG portion, can be produced as disclosed in U.S. application Ser. No. 08/010,406 filed Jan. 29, 1993 which is incorporated herein by reference. The plate was washed three times with 0.05% Tween-20 in PBS, then blocked, by adding 150 μl/well of assay buffer (10 mM N-2-hydroxyethylpiperazine-N'-[…] (HEPES) pH 7.2, containing 0.1% porcine gelatin, 0.1% Tween-80, and 0.01% sodium azide) and continuing incubation for 1 hour at 37° C. or at 4° C. for 1-7 days.
Lyophilized peptides to be tested were weighed in tared 12×75 mm polystyrene tubes and reconstituted to a concentration of 1.2 mM with assay buffer. Each suspension was sonicated in a water bath for 1-5 minutes and vortexed 15-30 seconds to disperse large particles. Serial dilutions of each peptide suspension were prepared using assay buffer in a 96-well polystyrene microtiter plate. Additional wells received Fab fragment of the mouse/human monoclonal anti-human TNFα antibody cA2 (positive control) or assay buffer (negative control). […] The polystyrene dilution plate was then sealed and incubated 1 hour at room temperature on an orbital mixer set at moderate speed.
Following the sample preincubation, blocker was discarded from the p55-Ig coated plate and blotted dry. Aliquots (50 μl) of each peptide or control were transferred into duplicate wells on the p55-Ig coated plate which was then sealed and incubated 1 hour at 37° C. Duplicate wells containing only assay buffer were included as a plate blank. After incubation the p55-Ig plate was washed three times with 0.05% Tween-20 in PBS.
To detect TNFα captured by the p55-Ig plate, all wells were incubated in succession with polyclonal rabbit anti-human TNFα (Genzyme, Boston, Mass.; 1:500 in assay buffer, 50 μl/well), biotinylated goat anti-rabbit Ig (H&L) (Vector Laboratories, Burlingame, Calif.; 1 μg/ml in assay buffer, 50 μl/well) and streptavidin-alkaline phosphatase conjugate (Pierce, Rockford, Ill.; 1 μg/ml in assay buffer, 50 μl/well). All incubations were for 1 hour at 37° C. and after each incubation the plate was washed three times with 0.05% Tween-20 in PBS. Fifty microliters of alkaline phosphatase substrate solution (alkaline buffer (Sigma, St. Louis, Mo.) diluted 1:500 in deionized water plus one 5 mg tablet of p-nitrophenyl phosphate (Sigma, St. Louis, Mo.) per 5 ml of diluted buffer) was added to all wells and incubation continued for 20 minutes at room temperature. Color development was stopped by adding to all wells 50 μl of 3N sodium hydroxide. The optical density (OD) at 405 nm was measured on a microtiter plate reader (Molecular Devices Vmax plate reader), with the plate blank wells subtracted as background. The activity of each peptide was then expressed as the percent inhibition of TNFα capture by the p55-Ig plate, relative to the amount of TNFα captured in wells containing only assay buffer (negative control), as follows: […]
For “Ac-YAESVKGRFTISRDDSKSAVYL-NH2 [SEQ ID NO:3, Acetyl-tyrosyl-alanyl-glutamyl-seryl-valyl-lysyl-glycyl-arginyl-phenylalanyl-threonyl-isoleucyl-seryl-arginyl-aspartyl-aspartyl-seryl-lysyl-seryl-alanyl-valyl-tyrosyl-leucine-amide]”, the IC50 was 290 µM.

For “Ac-LIKYASQSMSGI-NH2 [SEQ ID NO:1, Acetyl-leucyl-tsoleucyl-lysyl-tyrosyl-alanyl-seryl-glutaminyl-seryl-methionyl-seryl-glycyl-isoleucine-amide]”, the IC50 was 1880 µM.

In the case of “Ac-TDLRTEDTGVYYCSRNYYGSTY-NH2 [SEQ ID NO:5, Acetyl-threonyl-aspartyl-leucyl-arginyl-threonyl-glutamyl-aspartyl-threonyl-glycyl-valyl-tyrosyltyrosyl-cysteinyl-seryl-arginyl-asparaginyl-tyrosyl-tyrosyl-glycyl-seryl-threonyl-tyrosine-amide]”, the IC50 came to 1130 µM.

Regarding “Ac-INTVESEDIADYYCQQSHSW-NH2 [SEQ ID NO:8, Acetyl-isoleucyl-asparaginyl-threonyl-valyl-glutamyl-seryl-glutamyl-aspartyl-isoleucyl-alanyl-aspartyl-tyrosyl-tyrosyl-cysteinyl-glutaminyl-glutaminyl-seryl-histidyl-seryl-tryptophan-amide]”, the IC50 was found to be 1110 µM.

Regarding “Ac-DILLTQSPAILSVSPGERVSFS-NH2 [SEQ ID NO:6, Acetyl-aspartyl-isoleucyl-leucyl-leucyl-threonyl-glutaminyl-seryl-prolyl-alanyl-isoleucyl-leucyl-seryl-valyl-seryl-prolyl-glycyl-glutamyl-arginyl-valyl-seryl-phenylalanyl-serine-amide]”, the IC50 was found to be 2530 µM.

As for “RQSPEKGLEWVAEIRSKSI-NH2 [SEQ ID NO:4, Arginyl-glutaminyl-seryl-prolyl-glutamyl-lysyl-glycyl-leucyl-glutamyl-tryptophyl-valyl-alanyl-glutamyl-isoleucyl-arginyl-seryl-lysyl-seryl-isoleucine- amide]”, the IC50 came to 1020 µM.

For “Ac-FSNHWMNWVR-NH2 [SEQ ID NO:2, Acetyl-phenylalanyl-seryl-asparaginyl-histidyl-tryptophyl-methtonyl-asparaginyl-tryptophyl-valyl-arginine-amide]”, the IC50 was determined as 410 µM.

Take “Ac-FSNHWMNW-NH2 [SEQ ID NO:9, Acetyl-phenylalanyl-seryl-asparaginyl-histidyl-tryptophyl-methionyl-asparaginyl-tryptophan-amide]”: the IC50 was found to be 60 µM.

Turning to “Ac-YYSQQSHSWPFTF-NH2 [SEQ ID NO:7, Acetyl-tyrosyl-tyrosyl-seryl-glutaminyl-glutaminyl-seryl-histidyl-seryl-tryptophyl-prolyl-phenylalanyl-threonyl-phenylalanine-amide]”, the IC50 is 1080 µM.
